Where a name gives a salt, the structure may show the parent alone.
These compounds were tested on YAP-TEAD interaction (assay: SK-HEP-1 reporter assay (8xTEAD responsive elements driving NanoLuc luciferase)). Details: Homo sapiens, SK-HEP1, SK-HEP-1 reporter assay; class symbols.
Assay type: cell-based
Method: To identify inhibitors of YAP-TEAD interaction, 8×TEAD responsive elements driving the NanoLuc® luciferase gene were stably integrated into SK-HEP-1 cells (ECACC #: 91091816).
For the assay, cells were treated in duplicates with the test compounds in a 10-point dose, with the top concentration starting at 30 μM (final concentration in assay). After a 24 hour incubation at 37° C., 95% rH, and 5% CO2, a luciferase substrate/lysis reagent mix (NanoGlo™, Promega) was added to the cells, allowing the quantification of cellular luciferase activity.
Cell Media: The cells were cultured in the following media: MEM, +10% FBS, +1× GlutaMAX, +1 mM Sodium-Pyruvate, +100 μM Non-essential amino acids, +0.1 mg/ml Hygromycin. The media used for the assay was: MEM (w/o Phenol Red), +10% FBS, +1× GlutaMAX, +1 mM Sodium-Pyruvate, +100 μM Non-essential amino acids, +0.5% Pen/Strep
Reagents: The reagents used are listed below:
Cell culture: The cells were examined using an inverted microscope to check for health and cell density. To dissociate adherent cells, the monolayer of cells was washed once with pre-warmed PBS. After removing the PBS, 3 ml pre-warmed Accutase® was added to a F75 flask, dispersed evenly and the flask was allowed to sit in incubator for ˜4-5 minutes.
When a single cell suspension was obtained, 7 ml of prewarmed growth media was added and resuspended with the cells. The cell suspension was transferred to a sterile 15 ml conical centrifuge tube, and spun for 5 min at 300×g, RT. The supernatant was discarded and the pellet was resuspended in 10 ml of pre-warmed growth media.
The total cell count was determined, and 20 μl of the desired cell number was added to each well of a 384 well plate using a Multidrop Combi. The plates were then incubated for 24 hours at 37° C., 95% rH, and 5% C02.
Compound treatment: 24 hours after seeding, the cells were treated with compounds.
A 1:333 dilution of compounds, diluted in DMSO, was made to get a final concentration of 0.3% DMSO per well. To transfer the compounds to the assay plate, […] was shot from Labcyte low dead volume plates to the cell plates containing 20 μl media/well with the ECHO 555 liquid handling system.
After treatment, the cells were fed with 20 μl fresh pre-warmed assay media using a Multidrop combi.
The assay plates were then incubated for another 24 h at 37° C., 95% rH, and 5% CO2.
Luciferase readout: 24 h after treatment, the plates were taken out of the incubator and were allowed to equilibrate to RT. 30 μl of NanoGlo® reagent was added to the plates in the dark. Plates were shaken for 20 min on a Teleshake (˜1500 rpm) in the dark. The luminescence was then measured using an EnVision microplate reader. The IC50 values were generated using Genedata Screener®.

SMILES	IC50 [nM]
Cn1cc2c3cc(C(N)=O)cnc3n(-c3ccc(C(F)(F)F)cc3)c2n1 [Example C118, 4-methyl-7-[4-(trifluoromethyl)phenyl]-4,5,7,9-tetraazatricyclo[6.4.0.0^2,6]dodeca-1(8),2,5,9,11-pentaene-11-carboxamide]	100 to 10000
Cn1cc2c3cc(C(=O)N4CC(C#N)C4)ccc3n(-c3ccc(C(F)(F)F)cc3)c2n1 [Example C59, 1-{2-methyl-8-[4-(trifluoromethyl)phenyl]-2H,8H-pyrazolo[3,4-b]indole-5-carbonyl}azetidine-3-carbonitrile]	100 to 10000
Cn1cc2c3cc(C(=O)N=S(C)(=O)CCN)ccc3n(-c3ccc(C(F)(F)F)cc3)c2n1 (stereo not shown) [Example C36, N-[(2-aminoethyl) (methyl)οxο-λ^6-sulfanylidene]-2-methyl-8-[4-(trifluoromethyl)phenyl]-2H,8H-pyrazolo[3,4-b]indole-5-carboxamide]	100 to 10000
Cn1cnc2c1c1cc(C3CC(n4ccnn4)=NO3)ccc1n2-c1ccc(C(F)(F)F)cc1 (stereo not shown) [Example C211, 1-(5-{1-methyl-4-[4-(trifluoromethyl)phenyl]-1H,4H-imidazo[4,5-b]indol-7-yl}-4,5-dihydro-1,2-oxazol-3-yl)-1H-1,2,3-triazole]	100 to 10000
CC(N)CS(C)(=O)=NC(=O)c1ccc2c(c1)c1cn(C)nc1n2-c1ccc(C(F)(F)F)cc1 (stereo not shown) [Example C145, N-[(2-aminopropyl)(methyl)oxo-λ^6-sulfanylidene]-2-methyl-8-[4-(trifluoromethyl)phenyl]-2H,8H-pyrazolo[3,4-b]indole-5-carboxamide]	100 to 10000
Cn1cc2c3cc(C(N)=O)ccc3n(C3CC4(C3)CC(F)(F)C4)c2n1 [Example C205, 8-{6,6-difluorospiro[3.3]heptan-2-yl}-2-methyl-2H,8H-pyrazolo[3,4-b]indole-5-carboxamide]	100 to 10000
Cn1cc2c3cc(C(=O)NC[C@@H](O)C(F)(F)F)ccc3n(-c3ccc(C(F)(F)F)cc3)c2n1 [Example C135, 2-methyl-N-[(2R)-3,3,3-trifluoro-2-hydroxypropyl]-8-[4-(trifluoromethyl)phenyl]-2H,8H-pyrazolo[3,4-b]indole-5-carboxamide]	100 to 10000
[2H]C1([2H])C(n2c3ccc(C(=O)N[C@H](C)CO)cc3c3cn(C)nc32)C([2H])([2H])C([2H])([2H])C([2H])([2H])C1([2H])[2H] [Example C197]	100 to 10000
C[C@@H](CCN)NC(=O)c1ccc2c(c1)c1cn(C)nc1n2-c1ccc(C(F)(F)F)cc1 [Example C26, N-[(2S)-4-aminobutan-2-yl]-2-methyl-8-[4-(trifluoromethyl)phenyl]-2H,8H-pyrazolo[3,4-b]indole-5-carboxamide]	100 to 10000
C[C@H](NC(=O)c1ccc2c(c1)c1cn(C)nc1n2-c1ccc(C(F)(F)F)cc1)c1ccncc1 [Example C127, 2-methyl-N-[(1S)-1-(pyridin-4-yl)ethyl]-8-[4-(trifluoromethyl)phenyl]-2H,8H-pyrazolo[3,4-b]indole-5-carboxamide]	100 to 10000
CC(NC(=O)c1ccc2c(c1)c1cn(C)nc1n2-c1ccc(C(F)(F)F)cc1)c1c[nH]nn1 (stereo not shown) [Example B5]	100 to 10000
Cn1cc2c3cc(C(=O)N=S4(=O)CCC(C)(N)CC4)ccc3n(-c3ccc(C(F)(F)F)cc3)c2n1 (stereo not shown) [Example C139, N-(4-amino-4-methyl-1-oxo-1lambda6-thian-1-ylidene)-2-methyl-8-[4-(trifluoromethyl)phenyl]-2H,8H-pyrazolo[3,4-b]indole-5-carboxamide]	100 to 10000
Cn1cc2c3cc(C4CC(n5ccnn5)=NO4)ccc3n(-c3ccc(C(F)(F)F)cc3)c2n1 (stereo not shown) [Example C37, 1-(5-{2-methyl-8-[4-(trifluoromethyl)phenyl]-2H,8H-pyrazolo[3,4-b]indol-5-yl}-4,5-dihydro-1,2-oxazol-3-yl)-1H-1,2,3-triazole]	> 10000
C[C@H](CO)NC(=O)c1ccc2c(c1)c1cn(C)nc1n2C1CC2(C1)CC(F)(F)C2 [Example C207, 8-{6,6-difluorospiro[3.3]heptan-2-yl}-N-[(2R)-1-hydroxypropan-2-yl]-2-methyl-2H,8H-pyrazolo[3,4-b]indole-5-carboxamide]	100 to 10000
C=Cc1ccc2c(c1)c1c(ncn1C)n2-c1ccc(C(F)(F)F)cc1 [Example C179, 7-ethenyl-1-methyl-4-[4-(trifluoromethyl)phenyl]-1H,4H-imidazo [4,5-b]indole]	100 to 10000
Cn1cc2c(n1)c1cc(S(=O)(=O)N3CCC[C@@H]3c3cccnc3)ccc1n2-c1ccc(C(F)(F)F)cc1 [Example C8, 3-[(2R)-1-({2-methyl-4-[4-(trifluoromethyl)phenyl]-2H,4H-pyrazolo[4,3-b]indol-7-yl}sulfonyl)pyrrolidin-2-yl]pyridine]	> 10000

Second part, the compound after the results:

IC50 [nM]	SMILES
100 to 10000	Cn1cc2c3cc(NC(=O)CC4CCNC4)ccc3n(-c3ccc(C(F)(F)F)cc3)c2n1 (stereo not shown) [Example C223, N-{2-methyl-8-[4-(trifluoromethyl)-phenyl]-2H,8H-pyrazolo[3,4-b]indol-5-yl}-2-(pyrrolidin-3-yl)acetamide]
10 to 100	Cn1nc2c3cc(C4CC(Oc5cncnc5)=NO4)ccc3n(-c3ccc(C(F)(F)F)cc3)c2n1 (stereo not shown) [Example C234, 5-[(5-{2-methyl-4-[4-(trifluoromethyl)-phenyl]-2H,4H-[1,2,3]triazolo[4,5-b]indol-7-yl}-4,5-dihydro-1,2-oxazol-3-yl)oxy]pyrimidine]
10 to 100	Cn1cc2c3cc(C4CC(F)(F)C(=O)N4)ccc3n(-c3ccc(C(F)(F)F)cc3)c2n1 (stereo not shown) [Example C275, 3,3-difluoro-5-{2-methyl-8-[4-(trifluoromethyl)phenyl]-2H,8H-pyrazolo[3,4-b]indol-5-yl}pyrrolidin-2-one]
100 to 10000	Cn1cc2c3nc(C(N)=O)ccc3n(-c3ccc(C(F)(F)F)cc3)c2n1 [Example C229, 4-methyl-7-[4-(trifluoromethyl)phenyl]-4,5,7,12-tetraazatricyclo[6.4.0.0^2,6]dodeca-1(8),2,5,9,11-pentaene-11-carboxamide]
100 to 10000	Cn1nc2c3cc(C4CC(n5ccnn5)=NO4)ccc3n(-c3ccc(C(F)(F)F)cc3)c2n1 (stereo not shown) [Example C232, 1-(5-{2-methyl-4-[4-(trifluoromethyl)phenyl]-3H,4H-[1,2,3]triazolo[4,5-b]indol-7-yl}-4,5-dihydro-1,2-oxazol-3-yl)-1H-1,2,3-triazole]
1 to 10	Cn1nc2c3cc(C(=O)O)ccc3n(-c3ccc(C(F)(F)F)cc3F)c2n1 [Example C258, 4-[2-fluoro-4-(trifluoromethyl)phenyl]-2-methyl-2H,4H-[1,2,3]triazolo[4,5-b]indole-7-carboxylic acid]
100 to 10000	Cn1cc2c3cc(C(=O)/N=S4/CC(N)CO4)ccc3n(-c3ccc(C(F)(F)F)cc3)c2n1 (stereo not shown) [Example C269, N-(4-amino-1,2lambda4-oxathiolan-2-ylidene)-2-methyl-8-[4-(trifluoromethyl)phenyl]-2H,8H-pyrazolo[3,4-b]indole-5-carboxamide formate]
100 to 10000	Cn1cc2c3cc(C(=O)NC4(CO)CCNCC4)ccc3n(-c3ccc(C(F)(F)F)cc3)c2n1 [Example C218, N-[4-(hydroxymethyl)piperidin-4-yl]-2-methyl-8-[4-(trifluoromethyl)phenyl]-2H,8H-pyrazolo[3,4-b]indole-5-carboxamide]
10 to 100	Cn1nc2c3cc(C(=O)N=[S@](=O)(CCO)Cc4cccnc4)ccc3n(-c3ccc(C(F)(F)F)cc3)c2n1 (single isomer, unassigned) [Example C235]

Same assay, conditions: Homo sapiens, SK-HEP1, SK-HEP-1 reporter assay; n.d. = value not detectable below threshold given in parentheses; ND = not determinable within the entire range

SMILES	IC50 [nM]
Cn1cc2c(n1)c1cc(S(=O)(=O)N3C[C@@H](O)C[C@H]3c3ccccc3)ccc1n2-c1ccc(C(F)(F)F)cc1 (single isomer, unassigned) [Example C47]	> 10000
Cn1cc2c(n1)c1cc(S(=O)(=O)N3CCC[C@@H]3c3cncnc3)ccc1n2-c1ccc(C(F)(F)F)cc1 (single isomer, unassigned) [Example C61]	> 1000

Same assay, conditions: SK-HEP-1 reporter assay; class symbols

SMILES	IC50 [nM]
Cn1cnc2c1c1cc(C3CC(Oc4cncnc4)=NO3)ccc1n2-c1ccc(C(F)(F)F)cc1 (stereo not shown) [Example C215, 5-[(5-{1-methyl-4-[4-(trifluoromethyl)phenyl]-1H,4H-imidazo[4,5-b]indol-7-yl}-4,5-dihydro-1,2-oxazol-3-yl)oxy]pyrimidine]	100 to 10000

Reference: US20240270748A1 (Merck Patent GmbH, priority 2021, published 2024)
